For assay [1], the target named is T1, ΔF508-CFTR (Homo sapiens, UniProt P13569, DEL508-508).
T1 construct: host or cells: CFBE41o-, doxycycline-inducible
The experiment in a line: CFTR cell surface levels using HRP-tagged ΔF508-CFTR expressing CFBE cells, in the presence of a co-corrector. It counts as cell-based. To be noted: HRP-tagged ΔF508-CFTR expressing CFBE cells, in the presence of 3 μM co-corrector; for EC50: read-out: EC50. An outline of the steps:
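Cells were seeded with 0.5 μg/mL doxycycline and held 68 h at 37 °C. Test compounds plus 3 μM co-corrector (final 0.1% DMSO) were then added for 20 h at 33 °C. Washed cells received HRP substrate, and luminescence was normalized between DMSO and 3 μM co-corrector controls.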

Assay [2] concerns the target T1, ΔF508-CFTR. The experiment in a line: CFTR cell surface levels using HRP-tagged ΔF508-CFTR expressing CFBE cells, intrinsic corrector capacity. It counts as cell-based. To be noted: for EC50: read-out: EC50. An outline of the steps: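 Here the cells express ΔF508-CFTR with horseradish peroxidase inserted in extracellular loop 4, so only rescued channel at the surface gives luminescent signal. Compounds act on their own, 20 h at the reduced temperature of 33 °C; values are percent activity relative to DMSO and a 3 μM corrector.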

Setting [3] is: HRP-tagged ΔF508-CFTR expressing CFBE cells, intrinsic corrector capacity (no co-corrector), 33° C., 20 hours.
Setting [4] is: HRP-tagged ΔF508-CFTR CFBE41o- cells, compounds alone (intrinsic corrector capacity), 20 hours at 33° C., positive control 3 μM corrector.
The mark [5] stands for this setting: HRP-tagged ΔF508-CFTR CFBE41o- cells, compounds alone (intrinsic corrector capacity), 20 hours at 33° C.

Results on 20 compounds are retold here after patent US9796711B2, “Substituted pyrazolo[3,4-b]pyridin-6-carboxylic acids and method of use” (AbbVie S.àr.l., priority 2015, dated 2017).

T1 sequence (P13569 with tags, fused parts or gaps DEL508-508): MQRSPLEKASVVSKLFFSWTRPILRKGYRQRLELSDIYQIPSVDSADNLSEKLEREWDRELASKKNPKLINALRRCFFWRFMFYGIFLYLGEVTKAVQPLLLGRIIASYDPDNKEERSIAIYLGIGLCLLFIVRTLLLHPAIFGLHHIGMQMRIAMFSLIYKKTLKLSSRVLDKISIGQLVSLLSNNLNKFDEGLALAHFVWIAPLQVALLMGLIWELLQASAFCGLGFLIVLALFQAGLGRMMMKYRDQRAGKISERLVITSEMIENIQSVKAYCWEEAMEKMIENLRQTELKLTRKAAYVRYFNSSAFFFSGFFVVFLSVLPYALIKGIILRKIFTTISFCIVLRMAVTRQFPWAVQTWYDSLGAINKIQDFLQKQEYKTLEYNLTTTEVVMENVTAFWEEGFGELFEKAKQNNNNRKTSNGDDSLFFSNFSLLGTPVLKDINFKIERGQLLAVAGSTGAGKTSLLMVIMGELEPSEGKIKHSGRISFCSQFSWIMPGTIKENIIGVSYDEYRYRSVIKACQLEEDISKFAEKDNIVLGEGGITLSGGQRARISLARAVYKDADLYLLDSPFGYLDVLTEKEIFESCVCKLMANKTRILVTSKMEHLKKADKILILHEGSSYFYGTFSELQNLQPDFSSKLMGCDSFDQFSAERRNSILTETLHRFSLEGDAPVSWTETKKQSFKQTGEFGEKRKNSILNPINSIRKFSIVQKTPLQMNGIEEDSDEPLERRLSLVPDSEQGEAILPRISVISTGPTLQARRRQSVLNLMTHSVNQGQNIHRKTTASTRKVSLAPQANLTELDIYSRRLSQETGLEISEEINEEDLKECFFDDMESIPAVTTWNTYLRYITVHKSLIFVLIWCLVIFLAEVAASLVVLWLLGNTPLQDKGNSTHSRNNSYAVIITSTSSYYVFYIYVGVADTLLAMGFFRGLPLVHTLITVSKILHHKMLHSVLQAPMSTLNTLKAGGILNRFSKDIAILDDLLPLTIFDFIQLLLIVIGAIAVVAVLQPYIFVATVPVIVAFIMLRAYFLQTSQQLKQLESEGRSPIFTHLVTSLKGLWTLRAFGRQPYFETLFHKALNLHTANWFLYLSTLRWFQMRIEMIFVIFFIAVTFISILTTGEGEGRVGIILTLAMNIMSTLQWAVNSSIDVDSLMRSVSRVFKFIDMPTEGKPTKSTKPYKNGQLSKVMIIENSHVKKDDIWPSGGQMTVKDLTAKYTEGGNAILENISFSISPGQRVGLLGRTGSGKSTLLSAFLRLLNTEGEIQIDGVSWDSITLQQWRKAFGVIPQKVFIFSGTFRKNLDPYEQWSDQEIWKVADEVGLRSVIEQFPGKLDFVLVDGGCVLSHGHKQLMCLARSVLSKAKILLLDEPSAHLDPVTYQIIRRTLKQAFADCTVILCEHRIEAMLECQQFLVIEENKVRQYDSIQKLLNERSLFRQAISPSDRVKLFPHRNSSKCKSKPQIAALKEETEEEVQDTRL

As for `CO[C@H]1CC[C@@H](Oc2cc(C(=O)O)nc3c2c(C2CCC2)nn3-c2ccccc2)CC1` [compound 428, 3-cyclobutyl-4-[(cis-4-methoxycyclohexyl)oxy]-1-phenyl-1H-pyrazolo[3,4-b]pyridine-6-carboxylic acid], at ΔF508-CFTR [1], the “% Activation” value is 296% and the EC50 (in general, the concentration giving half of the maximal effect) turned out to be 380 nM. In addition, at ΔF508-CFTR [2] (setting [3]), the “% Activation” value came to 128.05% and the EC50 came out at 978 nM.
With `Cc1nn(-c2ccccc2)c2nc(C(=O)O)cc(OCC3CCC(F)(F)C3)c12` (centres unmarked) [compound 382, 4-[(3,3-difluorocyclopentyl)methoxy]-3-methyl-1-phenyl-1H-pyrazolo[3,4-b]pyridine-6-carboxylic acid], the “% Activation” value came out at 268.1% at ΔF508-CFTR [1] and 80.645% at ΔF508-CFTR [2] (setting [4]). Further, the EC50 came to 1410 nM at ΔF508-CFTR [1] and 1670 nM on ΔF508-CFTR [2] (setting [5]).
For the compound `CC(C)c1nn(-c2cccc(F)c2)c2nc(C(=O)O)cc(-c3ccc(N4CCC(C#N)CC4)nc3)c12` [compound 285, 4-[6-(4-cyanopiperidin-1-yl)pyridin-3-yl]-1-(3-fluorophenyl)-3-(propan-2-yl)-1H-pyrazolo[3,4-b]pyridine-6-carboxylic acid], the “% Activation” value on ΔF508-CFTR [1] came out at 428%; at ΔF508-CFTR [2] (setting [4]) it was 255.73%. Further, the values for the EC50 on ΔF508-CFTR [1] and on ΔF508-CFTR [2] (setting [5]) were 261 nM and 655 nM, respectively.
With `CC(C)c1nn(C2CCCCC2)c2nc(C(=O)O)cc(-c3ccc(N4CCC(C)(C#N)CC4)nc3)c12` [compound 203, 4-[6-(4-cyano-4-methylpiperidin-1-yl)pyridin-3-yl]-1-cyclohexyl-3-(propan-2-yl)-1H-pyrazolo[3,4-b]pyridine-6-carboxylic acid], the “% Activation” value on ΔF508-CFTR [1] is on record as 361.75%; at ΔF508-CFTR [2] (setting [4]), 162.5%. Further, the EC50 was determined as 756 nM on ΔF508-CFTR [1] and 843 nM on ΔF508-CFTR [2] (setting [5]).
With `O=C(O)c1cc(OCCN2CCC3(CC2)OCCO3)c2c(C3CCC3)nn(-c3ccccc3)c2n1` [compound 623, 3-cyclobutyl-4-[2-(1,4-dioxa-8-azaspiro[4.5]decan-8-yl)ethoxy]-1-phenyl-1H-pyrazolo[3,4-b]pyridine-6-carboxylic acid], the “% Activation” value is 308.3% on ΔF508-CFTR [1] and 106.8% on ΔF508-CFTR [2] (setting [3]). Besides, the EC50 was found to be 501 nM on ΔF508-CFTR [1] and 1160 nM at ΔF508-CFTR [2] (setting [3]).
For `O=C(O)c1cc(N2CC(OCC(F)F)C2)c2c(C3CCC3)nn(-c3ccccc3)c2n1` [compound 513, 3-cyclobutyl-4-[3-(2,2-difluoroethoxy)azetidin-1-yl]-1-phenyl-1H-pyrazolo[3,4-b]pyridine-6-carboxylic acid], the “% Activation” value is on record as 349.6% at ΔF508-CFTR [1] and 141.7% on ΔF508-CFTR [2] (setting [3]). In addition, the EC50 on ΔF508-CFTR [1] was found to be 472 nM; on ΔF508-CFTR [2] (setting [3]), 371 nM.
As to `CC(C)c1nn(-c2cccc(F)c2)c2nc(C(=O)O)cc(-c3cnc(N(C)C4CCOCC4)nc3)c12` [compound 316, 1-(3-fluorophenyl)-4-{2-[methyl(oxan-4-yl)amino]pyrimidin-5-yl}-3-(propan-2-yl)-1H-pyrazolo[3,4-b]pyridine-6-carboxylic acid], the “% Activation” value at ΔF508-CFTR [1] is 435.6%; on ΔF508-CFTR [2] (setting [4]), 218.87%. Further, the results for the 50% effective concentration (EC50) at ΔF508-CFTR [1] and at ΔF508-CFTR [2] (setting [5]) were 308 nM and 565 nM, respectively.
`O=C(O)c1cc(N2CCC(CN3CCC4(CC3)COC4)CC2)c2c(C3CCC3)nn(-c3ccccc3)c2n1` [compound 840, 3-cyclobutyl-4-{4-[(2-oxa-7-azaspiro[3.5]nonan-7-yl)methyl]piperidin-1-yl}-1-phenyl-1H-pyrazolo[3,4-b]pyridine-6-carboxylic acid]: on ΔF508-CFTR [1], the “% Activation” value is given as 368.8% and the EC50 is 250 nM. For the same compound, at ΔF508-CFTR [2] (setting [3]), the “% Activation” value amounted to 164.4% and the EC50 came to 400 nM.
Turning to `Cc1cccc(-n2nc(C(C)C)c3c(N4CCC(F)(F)CC4)cc(C(=O)O)nc32)c1` [compound 210, 4-(4,4-difluoropiperidin-1-yl)-1-(3-methylphenyl)-3-(propan-2-yl)-1H-pyrazolo[3,4-b]pyridine-6-carboxylic acid], the figures for the “% Activation” value on ΔF508-CFTR [1] and on ΔF508-CFTR [2] (setting [4]) were 261% and 66.65%, respectively. Besides, the EC50 at ΔF508-CFTR [1] was found to be 3340 nM; at ΔF508-CFTR [2] (setting [5]), 1180 nM.
In the same order, the values of `COCCN(CCOC)c1ccc(-c2cc(C(=O)O)nc3c2c(C(C)C)nn3C2CCCCC2)cn1` [compound 275, 4-{6-[bis(2-methoxyethyl)amino]pyridin-3-yl}-1-cyclohexyl-3-(propan-2-yl)-1H-pyrazolo[3,4-b]pyridine-6-carboxylic acid] are 371.35%, 173.8%, 736 nM and 923 nM.
In the case of `CN1CCN(C2CCN(c3cc(C(=O)O)nc4c3c(C3CCC3)nn4-c3ccccc3)CC2)CC1` [compound 757, 3-cyclobutyl-4-[4-(4-methylpiperazin-1-yl)piperidin-1-yl]-1-phenyl-1H-pyrazolo[3,4-b]pyridine-6-carboxylic acid], at ΔF508-CFTR [1], the “% Activation” value is 489.6% and the EC50 stood at 402 nM. Further, at ΔF508-CFTR [2] (setting [3]), the “% Activation” value is listed as 208.45% and the EC50 came to 319 nM.
In the case of `CC(C)c1nn(C2CCCC2)c2nc(C(=O)O)cc(-c3ccc(N4CCOCC4)cc3)c12` [compound 69, 1-cyclopentyl-4-[4-(morpholin-4-yl)phenyl]-3-(propan-2-yl)-1H-pyrazolo[3,4-b]pyridine-6-carboxylic acid], the “% Activation” value at ΔF508-CFTR [1] was found to be 366.8%; on ΔF508-CFTR [2] (setting [4]) it was 150.25%. For the same compound, the EC50 came out at 993 nM at ΔF508-CFTR [1] and 970 nM at ΔF508-CFTR [2] (setting [5]).
The corresponding values for `CC(C)c1nn(-c2cccc(N3CCOCC3)c2)c2nc(C(=O)O)cc(-c3cnc(N(C)C)nc3)c12` [compound 88, 4-[2-(dimethylamino)pyrimidin-5-yl]-1-[3-(morpholin-4-yl)phenyl]-3-(propan-2-yl)-1H-pyrazolo[3,4-b]pyridine-6-carboxylic acid] are 453.15%, 288.95%, 525 nM and 693 nM.
The corresponding values for `CC(C)c1nn(-c2cccc(N3CCOCC3)c2)c2nc(C(=O)O)cc(-c3ccc(N4CCC(C#N)CC4)cc3)c12` [compound 206, 4-[4-(4-cyanopiperidin-1-yl)phenyl]-1-[3-(morpholin-4-yl)phenyl]-3-(propan-2-yl)-1H-pyrazolo[3,4-b]pyridine-6-carboxylic acid] are 661.63%, 466.87%, 246 nM and 323 nM.
Consider `C[C@@H](CN(C)C)Oc1cc(C(=O)O)nc2c1c(C1CCC1)nn2-c1ccccc1` [compound 615, 3-cyclobutyl-4-{[(2S)-1-(dimethylamino)propan-2-yl]oxy}-1-phenyl-1H-pyrazolo[3,4-b]pyridine-6-carboxylic acid], for which, at ΔF508-CFTR [1], the “% Activation” value is 216.65% and the EC50 came to 2330 nM. Moreover, at ΔF508-CFTR [2] (setting [3]), the “% Activation” value turned out to be 44.6% and the EC50 worked out at 3330 nM.
In the case of `Cc1cccc(-n2nc(C(C)C)c3c(N4CCC5C(CCN5CC#N)C4)cc(C(=O)O)nc32)c1` (centres unmarked) [compound 256, 4-[1-(cyanomethyl)octahydro-5H-pyrrolo[3,2-c]pyridin-5-yl]-1-(3-methylphenyl)-3-(propan-2-yl)-1H-pyrazolo[3,4-b]pyridine-6-carboxylic acid], the “% Activation” value is 362.25% at ΔF508-CFTR [1] and 180% on ΔF508-CFTR [2] (setting [4]). For the same compound, the EC50 on ΔF508-CFTR [1] stood at 2050 nM; on ΔF508-CFTR [2] (setting [5]), 3340 nM.
For the compound `O=C(O)c1cc(N2CCC(C(F)(F)F)C2)c2c(C3CCC3)nn(-c3ccccc3)c2n1` (centres unmarked) [compound 442, 3-cyclobutyl-1-phenyl-4-[3-(trifluoromethyl)pyrrolidin-1-yl]-1H-pyrazolo[3,4-b]pyridine-6-carboxylic acid], the “% Activation” value at ΔF508-CFTR [1] is reported as 321.95%; at ΔF508-CFTR [2] (setting [3]), 137.7%. Further, the EC50 at ΔF508-CFTR [1] was 655 nM; on ΔF508-CFTR [2] (setting [3]), 1080 nM.
`CC1CN(c2ccc(-c3cc(C(=O)O)nc4c3c(C(C)C)nn4C3CCCCC3)cn2)CC(C)O1` (centres unmarked) [compound 196, 1-cyclohexyl-4-[6-(2,6-dimethylmorpholin-4-yl)pyridin-3-yl]-3-(propan-2-yl)-1H-pyrazolo[3,4-b]pyridine-6-carboxylic acid]: the figures for the “% Activation” value at ΔF508-CFTR [1] and on ΔF508-CFTR [2] (setting [4]) were 520.8% and 251.45%, respectively. Further, the EC50 on ΔF508-CFTR [1] came out at 596 nM; on ΔF508-CFTR [2] (setting [5]), 555 nM.
Consider `COC1(C)CCN(c2cc(C(=O)O)nc3c2c(C(C)C)nn3-c2ccc(F)cc2)CC1` [compound 397, 1-(4-fluorophenyl)-4-(4-methoxy-4-methylpiperidin-1-yl)-3-(propan-2-yl)-1H-pyrazolo[3,4-b]pyridine-6-carboxylic acid], for which, on ΔF508-CFTR [1], the “% Activation” value was 217.3% and the EC50 worked out at 299 nM. Moreover, at ΔF508-CFTR [2] (setting [3]), the “% Activation” value came out at 73.11% and the EC50 was 645 nM.
Take `CC(c1ccc(-c2cc(C(=O)O)nc3c2c(C2CCC2)nn3C2CCCCC2)cc1)N1CCOCC1` (centres unmarked) [compound 866, 3-cyclobutyl-1-cyclohexyl-4-{4-[1-(morpholin-4-yl)ethyl]phenyl}-1H-pyrazolo[3,4-b]pyridine-6-carboxylic acid]: the “% Activation” value on ΔF508-CFTR [1] came to 298.3%; at ΔF508-CFTR [2] (setting [3]), 99.71%. The EC50 on ΔF508-CFTR [1] is 151 nM; at ΔF508-CFTR [2] (setting [3]) it was 277 nM.
